Experimental data as given in patent US20180110754A1, “CENICRIVIROC FOR THE TREATMENT OF FIBROSIS” (Tobira Therapeutics, Inc., priority 2015, published 2018).

Experiments:
[1] = Tissue distribution in rodents; type: in vivo
CCR3 = CCR3 (Homo sapiens, UniProt P51677); experiment: Inhibition of ligand binding to CCR3
[2] = test system: thioacetamide (TAA)-induced hepatic fibrosis; experiment: Rat model of thioacetamide-induced liver fibrosis and cirrhosis; type: in vivo, Sprague-Dawley rats; settings: for Reduction of fibrosis (collagen morphometry): weeks 0-8
Method: Fibrosis was induced in male Sprague-Dawley rats by intraperitoneal administration of TAA 150 mg/kg 3 times/week for 8 weeks. […] Biochemical, gene expression and histologic evaluations of the liver were conducted.

HIV-1 = experiment: Study 201 Phase 2a 10-day monotherapy: HIV-1 RNA and resistance; type: in vivo, human; settings: for Median nadir change from baseline in HIV-1 RNA: 10 days
Method: Participants were required to be antiretroviral treatment-experienced, CCR5 antagonist-naive, with HIV-1 RNA levels of at least 5000 copies/mL and CD4+ cell counts of at least 250 cells/mm^3 was performed.
In Study 201, drug resistance testing was performed at Baseline, Day 7, and Day 40 (or at the “Early Termination” visit, if applicable).

Chain of CCR3 (P51677 whole entry): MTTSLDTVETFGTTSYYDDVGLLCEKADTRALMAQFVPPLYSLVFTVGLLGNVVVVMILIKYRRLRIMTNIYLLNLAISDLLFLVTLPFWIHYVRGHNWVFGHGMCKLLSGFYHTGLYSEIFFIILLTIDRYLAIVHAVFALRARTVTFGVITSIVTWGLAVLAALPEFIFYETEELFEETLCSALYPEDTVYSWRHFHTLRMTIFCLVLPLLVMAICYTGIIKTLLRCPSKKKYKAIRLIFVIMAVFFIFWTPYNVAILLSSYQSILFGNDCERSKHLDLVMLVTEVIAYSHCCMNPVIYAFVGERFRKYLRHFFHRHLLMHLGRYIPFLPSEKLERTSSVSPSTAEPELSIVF

SMILES: CCCCOCCOc1ccc(-c2ccc3c(c2)/C=C(/C(=O)Nc2ccc([S@@+]([O-])Cc4cncn4CCC)cc2)CCCN3CC(C)C)cc1 [CVC, (S)-8-[4-(2-Butoxyethoxy)phenyl]-1-isobutyl-N-(4-{[(1-propyl-1H-imidazol-5-yl)methyl]sulfinyl}phenyl)-1,2,3,4-tetrahydro-1-benzazocine-5-carboxamide]
- Tissue distribution [1]: high distribution in the liver, mesenteric lymph node, and intestine
- Inhibition of ligand binding to CCR3 (CCR3): only weakly inhibited
- Reduction of collagen type 1 protein levels ([2]; Group 1a: 30 mg/kg/day): 30%
- Reduction of α-SMA ([2]; Group 1a: 30 mg/kg/day): 17%
- Reduction of fibrosis (collagen morphometry) ([2]; Group 1a: 30 mg/kg/day concurrently with TAA): 49%
- Reduction of collagen type 1 protein levels ([2]; Group 1b: 100 mg/kg/day): 12%
- Reduction of α-SMA ([2]; Group 1b: 100 mg/kg/day): 22%
- Reduction of fibrosis (collagen morphometry) ([2]; Group 1b: 100 mg/kg/day concurrently with TAA): 38%
- Reduction in collagen ([2]; Group 2a: 30 mg/kg/day, weeks 4-8 (emerging fibrosis)): 36%
- Effect on fibrogenic gene expression or fibrosis ([2]; Group 3: weeks 8-12, cirrhosis present): no significant effect
- Median nadir change from baseline in HIV-1 RNA (HIV-1; 25 mg once daily): −0.7 log^10 copies/mL
- Median nadir change from baseline in HIV-1 RNA (HIV-1; 50 mg once daily): −1.6 log^10 copies/mL
- Median nadir change from baseline in HIV-1 RNA (HIV-1; 75 mg once daily): −1.8 log^10 copies/mL
- Median nadir change from baseline in HIV-1 RNA (HIV-1; 150 mg once daily): −1.7 log^10 copies/mL
- Drug resistance testing (Baseline, Day 7, Day 40) (HIV-1; all subjects with evaluable samples): fully susceptible
